Experimental data taken from the supplement of paper PMC8612539.
Values after ≈ are worked out from the molar mass of the structure shown.

Tested on: Escherichia coli
Assay: minimum inhibitory concentration (MIC)
Method: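 Broth microdilution MIC (Sensititre BOPO7F bovine plate, CLSI methods) of 19 antimicrobials against field isolates of P. multocida, M. haemolytica, H. somni (deep nasopharyngeal swabs) and E. coli, Enterococcus spp. (rectal swabs) from weaned dairy heifers. Incubation 16-24 h at 35 C. MIC is the lowest concentration preventing visible growth. Values with <= or > lie at the tested range limits. Trimethoprim-sulfamethoxazole is given as the trimethoprim component of a 1:19 mixture.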

CCCNC[C@]1(O)[C@H](C)O[C@@H](O[C@H]2[C@H](C)[C@@H](O[C@@H]3O[C@H](C)C[C@H](N(C)C)[C@H]3O)[C@](C)(O)C[C@@H](C)CN[C@H](C)[C@@H](O)[C@](C)(O)[C@@H](CC)OC(=O)[C@@H]2C)C[C@@]1(C)OC [Tulathromycin]
Details	minimum inhibitory concentration [µg/mL]
isolate (source animal id): 139	≤ 8
isolate (source animal id): 140	≤ 8
isolate (source animal id): 141	≤ 8
isolate (source animal id): 142	≤ 8
isolate (source animal id): 143	16 (≈ 19.8 µM)
isolate (source animal id): 144	16 (≈ 19.8 µM)
isolate (source animal id): 145	16 (≈ 19.8 µM)
isolate (source animal id): 146	16 (≈ 19.8 µM)
isolate (source animal id): 147	≤ 8
isolate (source animal id): 148	≤ 8
isolate (source animal id): 149	≤ 8
isolate (source animal id): 150	≤ 8
isolate (source animal id): 151	≤ 8
isolate (source animal id): 152	≤ 8
isolate (source animal id): 153	≤ 8
isolate (source animal id): 154	≤ 8
isolate (source animal id): 155	≤ 8
isolate (source animal id): 156	≤ 8
isolate (source animal id): 157	≤ 8
isolate (source animal id): 158	≤ 8
isolate (source animal id): 159	≤ 8
isolate (source animal id): 160	≤ 8
isolate (source animal id): 161	≤ 8
isolate (source animal id): 162	≤ 8
isolate (source animal id): 163	16 (≈ 19.8 µM)
isolate (source animal id): 164	≤ 8
isolate (source animal id): 165	≤ 8
isolate (source animal id): 166	≤ 8
isolate (source animal id): 167	16 (≈ 19.8 µM)
isolate (source animal id): 168	≤ 8
isolate (source animal id): 169	≤ 8
isolate (source animal id): 170	≤ 8
isolate (source animal id): 171	≤ 8
isolate (source animal id): 172	≤ 8
isolate (source animal id): 173	≤ 8
isolate (source animal id): 174	≤ 8
isolate (source animal id): 175	16 (≈ 19.8 µM)
isolate (source animal id): 176	≤ 8
isolate (source animal id): 177	≤ 8
isolate (source animal id): 178	≤ 8
isolate (source animal id): 179	≤ 8
isolate (source animal id): 180	≤ 8
isolate (source animal id): 181	≤ 8
isolate (source animal id): 182	16 (≈ 19.8 µM)
isolate (source animal id): 183	≤ 8
isolate (source animal id): 184	≤ 8
isolate (source animal id): 185	16 (≈ 19.8 µM)
isolate (source animal id): 186	≤ 8
isolate (source animal id): 187	≤ 8
isolate (source animal id): 188	≤ 8
